Reference: the supplement of paper PMC10307832

Assays:
Assay in all cases: relative viability (nuclei count vs DMSO), 5 days (fraction); higher = more cells survive
[1] = compound: Cc1ccc(F)c(NC(=O)Nc2ccc(-c3cccc4[nH]nc(N)c34)cc2)c1 [Linifanib] + C[C@]1(O)C[C@@H](c2nc(-c3ccc4ccc(-c5ccccc5)nc4c3)c3c(N)nccn32)C1 [Linsitinib] (partner 1 µM)
In short: (§1)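 Five library-drug doses in √10 steps were combined with a fixed anchor-drug dose, or a single drug was given alone, by pin tool to lung cancer cell lines in 1536-well plates the day after seeding. Nuclei were stained and counted after 5 days. Relative viability is the nuclei count in treated wells over that in vehicle wells, taken as the median of duplicate plates.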

[2] = compound: Cc1ccc(F)c(NC(=O)Nc2ccc(-c3cccc4[nH]nc(N)c34)cc2)c1 [Linifanib] + CC(=O)c1c(C)c2cnc(Nc3ccc(N4CCNCC4)cn3)nc2n(C2CCCC2)c1=O [Palbociclib] (partner 0.5 µM)
In short: as §1

[3] = compound: Cc1ccc(F)c(NC(=O)Nc2ccc(-c3cccc4[nH]nc(N)c34)cc2)c1 [Linifanib] + CC1(C)CCC(c2ccc(Cl)cc2)=C(CN2CCN(c3ccc(C(=O)NS(=O)(=O)c4ccc(N[C@H](CCN5CCOCC5)CSc5ccccc5)c(S(=O)(=O)C(F)(F)F)c4)cc3)CC2)C1 [Navitoclax] (partner 0.5 µM)
In short: as §1

[4] = compound: Cc1ccc(F)c(NC(=O)Nc2ccc(-c3cccc4[nH]nc(N)c34)cc2)c1 [Linifanib] + COc1cc2c(Oc3ccc(NC(=O)C4(C(=O)Nc5ccc(F)cc5)CC4)cc3F)ccnc2cc1OCCCN1CCOCC1 [Foretinib] (partner 0.25 µM)
In short: as §1

[5] = compound: Cc1ccc(F)c(NC(=O)Nc2ccc(-c3cccc4[nH]nc(N)c34)cc2)c1 [Linifanib] + Nc1nc2[nH]cc(CCc3ccc(C(=O)N[C@@H](CCC(=O)O)C(=O)O)cc3)c2c(=O)[nH]1 [Pemetrexed] (partner 0.2 µM)
In short: as §1

[6] = compound: Cc1ccc(F)c(NC(=O)Nc2ccc(-c3cccc4[nH]nc(N)c34)cc2)c1 [Linifanib] + CS(=O)(=O)N1CCN(Cc2cc3nc(-c4cccc5[nH]ncc45)nc(N4CCOCC4)c3s2)CC1 [Pictilisib] (partner 1 µM)
In short: as §1

| Cell Line | relative viability ([1]; first compound 0.03162 µM) | relative viability ([1]; first compound 0.1 µM) | relative viability ([1]; first compound 0.3162 µM) | relative viability ([2]; first compound 0.03162 µM) | relative viability ([2]; first compound 0.1 µM) | relative viability ([2]; first compound 0.3162 µM) | relative viability ([3]; first compound 0.03162 µM) | relative viability ([3]; first compound 0.1 µM) | relative viability ([3]; first compound 0.3162 µM) | relative viability ([4]; first compound 0.03162 µM) | relative viability ([4]; first compound 0.1 µM) | relative viability ([4]; first compound 0.3162 µM) | relative viability ([5]; first compound 0.03162 µM) | relative viability ([5]; first compound 0.1 µM) | relative viability ([5]; first compound 0.3162 µM) | relative viability ([6]; first compound 0.03162 µM) | relative viability ([6]; first compound 0.1 µM) | relative viability ([6]; first compound 0.3162 µM) |
| --- | --- | --- | --- | --- | --- | --- | --- | --- | --- | --- | --- | --- | --- | --- | --- | --- | --- | --- |
| HCC-827 | 0.992 | 0.999 | 0.996 | 0.491 | 0.544 | 0.46 | 1.02 | 1.02 | 1 | 1.06 | 1.11 | 1.1 | 0.21 | 0.265 | 0.235 | 0.898 | 0.96 | 0.933 |
| HOP-62 | 1.08 | 0.896 | 0.876 | 0.454 | 0.453 | 0.465 | 1 | 1.07 | 0.859 | 1.14 | 1.12 | 1.02 | 0.312 | 0.261 | 0.295 | 0.709 | 0.693 | 0.88 |
| LC-2-ad | 0.691 | 0.851 | 0.766 | 0.499 | 0.471 | 0.421 | 0.48 | 0.553 | 0.429 | 0.905 | 0.911 | 0.904 | 0.307 | 0.293 | 0.269 | 0.379 | 0.57 | 0.437 |
| LCLC-97TM1 | 0.17 | 0.214 | 0.171 | 0.212 | 0.243 | 0.196 | 0.436 | 0.417 | 0.321 | 0.865 | 0.961 | 0.852 | 0.202 | 0.16 | 0.146 | 0.208 | 0.196 | 0.169 |
| LCLC-103H | 1.13 | 1.07 | 0.978 | 0.474 | 0.417 | 0.464 |  |  |  | 0.629 | 0.753 | 0.803 | 0.477 | 0.469 | 0.458 | 0.71 | 0.596 | 0.693 |
| LK-2 | 0.516 | 0.502 | 0.536 | 0.564 | 1.01 | 0.565 | 0.791 | 1.03 | 0.704 | 1.12 | 1.33 | 1.08 | 0.278 | 0.318 | 0.272 | 0.495 | 0.537 | 0.489 |
| LOU-NH91 | 0.899 | 1.01 | 0.954 | 0.551 | 0.517 | 0.51 | 0.656 | 0.753 | 0.594 | 0.942 | 0.981 | 0.884 | 0.416 | 0.372 | 0.364 | 0.498 | 0.523 | 0.557 |
| LU99A | 0.503 | 0.551 | 0.505 | 0.457 | 0.464 | 0.408 | 0.747 | 0.775 | 0.743 | 0.856 | 0.973 | 0.826 | 0.182 | 0.171 | 0.202 | 0.317 | 0.349 | 0.325 |
| LXF-289 | 0.989 | 1.02 | 0.972 | 0.668 | 0.612 | 0.564 | 0.936 | 0.953 | 0.883 | 1.09 | 0.975 | 0.936 | 0.97 | 0.906 | 0.853 | 0.849 | 0.874 | 0.784 |
| NCI-H358 | 0.691 | 0.738 | 0.693 | 0.132 | 0.126 | 0.114 |  |  |  | 0.825 | 0.794 | 0.717 | 0.168 | 0.166 | 0.155 | 0.407 | 0.37 | 0.32 |
| NCI-H596 | 1.08 | 0.993 | 1.06 |  |  |  | 1.12 | 1.04 | 0.882 | 0.981 | 0.783 | 0.907 | 0.461 | 0.535 | 0.555 | 0.378 | 0.375 | 0.446 |
| NCI-H650 | 1 | 1.07 | 0.851 | 0.37 | 0.308 | 0.376 |  |  |  | 1 | 1.03 | 0.994 | 0.899 | 1.15 | 0.899 | 0.777 | 0.905 | 0.871 |
| NCI-H661 | 0.505 | 0.676 | 0.467 | 0.437 | 0.398 | 0.417 |  |  |  | 1.07 | 0.978 | 0.973 | 0.932 | 0.925 | 0.904 | 0.424 | 0.487 | 0.38 |
| NCI-H727 | 0.224 | 0.291 | 0.222 | 0.596 | 0.67 | 0.651 | 0.407 | 0.402 | 0.415 | 1.03 | 0.921 | 0.723 |  |  |  | 0.3 | 0.431 | 0.385 |
| NCI-H1650 |  |  |  | 0.35 | 0.399 | 0.351 | 0.998 | 1.35 | 1.21 | 0.966 | 1.33 | 1.07 | 0.364 | 0.346 | 0.348 | 0.661 | 0.671 | 0.5 |
| NCI-H1792 | 0.386 | 0.522 | 0.535 | 0.611 | 0.666 | 0.621 | 0.692 | 0.621 | 0.639 |  |  |  | 1.03 | 1 | 0.724 | 0.213 | 0.311 | 0.333 |
| NCI-H2170 |  |  |  | 0.385 | 0.421 | 0.402 | 0.557 | 0.616 | 0.448 | 0.792 | 1.01 | 0.99 | 0.265 | 0.276 | 0.297 | 0.297 | 0.332 | 0.304 |
| NCI-H2342 |  |  |  | 0.594 | 0.562 | 0.481 |  |  |  | 1.18 | 1.2 | 1.15 | 0.791 | 0.832 | 0.769 |  |  |  |
| SW 900 |  |  |  | 0.551 | 0.603 | 0.514 |  |  |  | 0.925 | 0.987 | 0.666 | 0.495 | 0.496 | 0.481 |  |  |  |
